Measured values reported in patent US9938281B2 (Merck Sharp & Dohme Corp., priority 2012, dated 2018).
pIC50: −log10 of the molar value.

Key:
PI3K-delta = target: T1, PI3K-delta (Homo sapiens, UniProt O00329); assay: HTRF PI3K biochemical assay, delta isoform; conditions: form screened (neutral or TFA salt) given, read-out: PI3Kdelta IC50
T1 construct: purchased Upstate; Millipore 14-604

PI3K-alpha = target: T2, PI3K-alpha (Homo sapiens, UniProt P42336); assay: HTRF PI3K biochemical assay, alpha isoform; conditions: ratio PI3K-alpha IC50 value / PI3K-delta IC50 value
T2 construct: purchased Upstate; Millipore 14-602
T2 sequence (P42336 whole entry, canonical isoform): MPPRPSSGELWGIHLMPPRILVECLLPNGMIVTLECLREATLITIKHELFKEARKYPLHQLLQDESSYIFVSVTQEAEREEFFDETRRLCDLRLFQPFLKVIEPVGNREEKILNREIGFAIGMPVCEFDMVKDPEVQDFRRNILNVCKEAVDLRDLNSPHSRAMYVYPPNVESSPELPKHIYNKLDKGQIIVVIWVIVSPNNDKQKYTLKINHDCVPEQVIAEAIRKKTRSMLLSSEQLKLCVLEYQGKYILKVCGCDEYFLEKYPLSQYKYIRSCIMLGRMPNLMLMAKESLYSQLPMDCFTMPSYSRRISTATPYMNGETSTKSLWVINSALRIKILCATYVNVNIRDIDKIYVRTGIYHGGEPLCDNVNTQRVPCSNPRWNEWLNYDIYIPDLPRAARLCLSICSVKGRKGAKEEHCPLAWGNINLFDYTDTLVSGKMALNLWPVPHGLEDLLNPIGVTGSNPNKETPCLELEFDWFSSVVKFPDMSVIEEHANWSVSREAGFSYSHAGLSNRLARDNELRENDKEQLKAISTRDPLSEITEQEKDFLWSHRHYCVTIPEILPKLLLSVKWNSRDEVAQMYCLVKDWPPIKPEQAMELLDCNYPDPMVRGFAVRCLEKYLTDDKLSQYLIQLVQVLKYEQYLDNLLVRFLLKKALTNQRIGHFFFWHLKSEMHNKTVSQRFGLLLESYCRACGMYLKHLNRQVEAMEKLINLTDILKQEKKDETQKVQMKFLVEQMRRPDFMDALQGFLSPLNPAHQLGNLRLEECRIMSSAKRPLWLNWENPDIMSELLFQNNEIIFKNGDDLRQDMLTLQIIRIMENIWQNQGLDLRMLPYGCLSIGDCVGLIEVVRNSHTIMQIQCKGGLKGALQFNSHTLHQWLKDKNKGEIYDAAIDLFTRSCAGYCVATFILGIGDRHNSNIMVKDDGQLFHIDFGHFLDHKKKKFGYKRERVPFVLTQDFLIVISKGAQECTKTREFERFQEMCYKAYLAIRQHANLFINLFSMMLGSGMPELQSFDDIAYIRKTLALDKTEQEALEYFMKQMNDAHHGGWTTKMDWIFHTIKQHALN
T2 sequence (P27986 whole entry partner, canonical isoform): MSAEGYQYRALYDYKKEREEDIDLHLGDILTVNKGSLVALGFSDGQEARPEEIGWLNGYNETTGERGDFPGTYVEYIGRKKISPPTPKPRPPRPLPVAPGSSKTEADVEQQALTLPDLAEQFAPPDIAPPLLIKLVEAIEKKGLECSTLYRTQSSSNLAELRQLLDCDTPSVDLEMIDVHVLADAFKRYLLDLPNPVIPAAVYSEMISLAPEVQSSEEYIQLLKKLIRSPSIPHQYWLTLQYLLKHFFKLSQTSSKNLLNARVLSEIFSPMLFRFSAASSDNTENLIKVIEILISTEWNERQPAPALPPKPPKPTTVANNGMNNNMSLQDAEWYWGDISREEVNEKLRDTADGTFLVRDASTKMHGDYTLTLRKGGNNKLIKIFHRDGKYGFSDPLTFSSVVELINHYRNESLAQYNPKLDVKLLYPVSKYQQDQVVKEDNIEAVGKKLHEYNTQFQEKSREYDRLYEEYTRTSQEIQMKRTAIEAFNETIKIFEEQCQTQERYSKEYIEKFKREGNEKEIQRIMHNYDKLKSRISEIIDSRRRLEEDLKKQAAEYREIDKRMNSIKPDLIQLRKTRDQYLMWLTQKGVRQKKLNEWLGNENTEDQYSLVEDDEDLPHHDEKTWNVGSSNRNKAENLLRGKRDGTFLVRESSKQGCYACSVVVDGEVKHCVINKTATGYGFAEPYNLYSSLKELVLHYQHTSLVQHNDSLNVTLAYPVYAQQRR
Excerpt: The PI3-Kinase biochemical assays were developed to measure the intrinsic potency and compound dependent inhibition of the alpha, beta, delta, and gamma PI3K isoform enzymes. This assay was developed and further optimized from a kit produced by Upstate (Millipore catalog #33-047) and has been configured for HTS and SAR screening. Briefly, this procedure exploits the exquisite specificity and high affinity binding of enzyme reaction substrate phosphatidyl(3,4,5)triphosphate (PIP3) to the GRP1 pleckstrin homology (PH) domain to generate the signal. In the absence of PIP3, an HTRF (Homogeneous Time-Resolved Fluorescence energy transfer) complex is formed consisting of europium (Eu)-labeled anti-GST, GSTtagged GRP1-PH domain, biotin-PIP3 and streptavidin conjugated APC. The native PIP3 produced by PI3-Kinase activity disrupts in a competitive manner the biotin-PIP3 from the PH domain, resulting in the loss of energy transfer (HTRF complex) and a decrease in the signal. The format of this assay is the same for all 4 isoforms of PI3K; the differences lie in the concentration of enzyme used to achieve robust assay window. The alpha, beta, and delta assays are run at 0.5, 1, and 0.3 nM enzymes and the gamma assay is run at 5 nM enzyme. The ATP concentration is 100 uM in the alpha, beta, and delta assays and 50 uM ATP in the gamma assay. All reactions are run at 5 uM PIP2.
Compounds are serially diluted (3-fold in 100% DMSO) across a 384-well polypropylene source plated from column 3 to column 12 and column 13 to column 22, to yield 10 concentration dose response for each test compound. Columns 1, 2, 23 and 24 contain either only DMSO or pharmacological known control inhibitor.
The PI3-Kinase biochemical assay was optimized using the HTRF kit provided by Upstate (Millipore). The assay kit contains six reagents: 1) 4× Reaction Buffer; 2) native PIP2 (substrate); 3) Stop (EDTA); 4) Detection Mix A (Streptavidin-APC); 5) Detection Mix B (Eu-labeled Anti-GST plus GST-tagged PH-domain); 6) Detection Mix C.
PI3Kinase Reaction Buffer is prepared by dilution the stock 1:4 with de-ionized water. […] Enzyme addition and compound pre-incubation are initiated by the addition of 1.25 ul of PI3K (at twice its final concentration) in the 1× reaction buffer to all wells using a BioRaptor. Plates are incubated at room temperature for 15 minutes. Reactions are initiated by addition of 1.25 ul of 2× substrate solution (PIP2 and ATP in 1× reaction buffer) using BioRaptor. Plates are incubated in humidified chamber at room temperature for one hour. Reactions are quenched by addition of 0.625 uL of stop solution to all wells using the BioRaptor. The quenched reactions are then processed to detect product formation by adding 0.625 uL of Detection Solution to all wells using the BioRaptor (Detection mix C, Detection Mix A, and Detection Mix B combined together in an 18:1:1 ratio prepared 2 hours prior to use).
The loss of the HTRF signal is due to the displacement of biotinylated-PIP3 from the PH domain by the PI3K-dependent conversion of PIP2 to PIP3. This loss of signal is nonlinear with respect to both increasing product and time. This non-linear detection will impact accuracy of IC50 calculations; therefore, there is a need for a correction factor to obtain more accurate IC50 values. This correction is derived from a PIP3 standard curve run in a separate assay plate. All data were calculated using the ratio of acceptor (APC) to donor (Europium) fluorescence in each well of the assay plate. […] An IC50 was then calculated fitting the % inhibition data to the equation: % inhibition=min+(Max−min)/1+([inhibitor]/IC50)^n) where min is the % inhibition with inhibitor, max is the signal in DMSO control, and n is the Hill slope.
The determination of relative selectivity for a given compound is defined as the relative ratio of the (PI3K-alphalC50 value/PI3K-delta IC50 value).

T1 sequence (O00329 whole entry, canonical isoform): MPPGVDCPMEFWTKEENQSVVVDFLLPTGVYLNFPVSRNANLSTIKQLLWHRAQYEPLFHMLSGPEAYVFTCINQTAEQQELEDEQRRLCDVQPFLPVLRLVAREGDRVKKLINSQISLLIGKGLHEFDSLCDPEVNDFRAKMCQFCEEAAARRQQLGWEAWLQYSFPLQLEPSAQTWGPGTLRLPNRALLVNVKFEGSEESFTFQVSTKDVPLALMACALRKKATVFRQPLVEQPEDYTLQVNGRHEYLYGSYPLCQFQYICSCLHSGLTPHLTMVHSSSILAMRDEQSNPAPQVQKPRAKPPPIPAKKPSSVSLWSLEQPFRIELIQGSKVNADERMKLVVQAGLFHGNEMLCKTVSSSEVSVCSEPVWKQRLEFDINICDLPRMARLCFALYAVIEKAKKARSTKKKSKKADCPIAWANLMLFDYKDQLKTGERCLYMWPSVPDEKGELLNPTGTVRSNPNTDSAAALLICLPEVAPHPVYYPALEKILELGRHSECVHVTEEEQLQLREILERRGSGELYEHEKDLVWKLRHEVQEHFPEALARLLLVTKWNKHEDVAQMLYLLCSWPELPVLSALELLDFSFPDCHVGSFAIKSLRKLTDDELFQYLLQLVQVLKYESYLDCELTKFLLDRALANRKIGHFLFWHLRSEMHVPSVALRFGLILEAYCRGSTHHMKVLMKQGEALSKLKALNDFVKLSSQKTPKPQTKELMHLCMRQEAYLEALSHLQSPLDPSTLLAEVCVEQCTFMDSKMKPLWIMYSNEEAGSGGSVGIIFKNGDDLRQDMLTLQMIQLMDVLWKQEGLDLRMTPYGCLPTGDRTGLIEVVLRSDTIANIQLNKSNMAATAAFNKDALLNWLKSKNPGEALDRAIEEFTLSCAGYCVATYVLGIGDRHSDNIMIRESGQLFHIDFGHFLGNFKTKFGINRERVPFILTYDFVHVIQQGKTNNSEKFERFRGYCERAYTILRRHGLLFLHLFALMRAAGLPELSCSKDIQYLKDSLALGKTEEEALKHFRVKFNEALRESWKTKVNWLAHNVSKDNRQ
T1 sequence (P27986 whole entry partner, canonical isoform): as the sequence (P27986 whole entry partner, canonical isoform) above

Structure (SMILES) | pIC50 (PI3K-delta) | Selectivity versus PI3Kalpha (PI3K-alpha)
CCn1c(-c2cnc(C)nc2)nc2c(NC3CN(C(=O)c4cocn4)CC3C)ncnc21 (single isomer, unassigned) [Compound 2-89, 9-ethyl-N-[-{(3S,4R or 3R,4S)-4-methyl-1-(1,3-oxazol-4-ylcarbonyl)pyrrolidin-3-yl]-8-(2-methylpyrimidin-5-yl)-9H-purin-6-amine] | 8.41 | >10
CCn1c(-c2cnc(C)nc2)nc2c(NC3CN(C(=O)C4CC4)CC3O)ncnc21 (single isomer, unassigned) [Compound 2-97, 1-(cyclopropylcarbonyl)-4-{(3R,4R) or (3S,4S)-[9-ethyl-8-(2-methylpyrimidin-5-yl)-9H-purin-6-yl]amino}pyrrolidin-3-ol] | 8.54 | >10
CCn1c(-c2ccc(C(F)(F)F)nc2)nc2c(N[C@H]3CCN(C(=O)C4CCOC4)C3)ncnc21 (single isomer, unassigned) [Compound 2-101, 9-ethyl-N-{(3S)-1-[(3R or 3S)-tetrahydrofuran-3-ylcarbonyl]pyrrolidin-3-yl}-8-[6-(trifluoromethyl)pyridin-3-yl]-9H-purin-6-amine] | > 9.00 | >10
CCn1c(-c2ccc(C(F)(F)F)nc2)nc2c(N[C@H]3CCN(C(=O)C4CCCO4)C3)ncnc21 (single isomer, unassigned) [Compound 2-103, 9-ethyl-N-{(3S)-1-[(2S or 2R)-tetrahydrofuran-2-ylcarbonyl]pyrrolidin-3-yl}-8-[6-(trifluoromethyl)pyridin-3-yl]-9H-purin-6-amine] | 8.74 | >10
CCn1c(-c2ccc(C(F)(F)F)nc2)nc2c(N[C@H]3CCN(C(=O)C4CCCO4)C3)ncnc21 (single isomer, unassigned) [Compound 2-104, 9-ethyl-N-{(3S)-1-[(2R or 2S)-tetrahydrofuran-2-ylcarbonyl]pyrrolidin-3-yl}-8-[6-(trifluoromethyl)pyridin-3-yl]-9H-purin-6-amine] | 8.47 | >10
CCC1CN(C(=O)C2CC2)CC1Nc1ncnc2c1nc(-c1cnc(C)nc1)n2CC (single isomer, unassigned) [Compound 3-20, N-[(3R,4S or 3S,4R)-1-(cyclopropylcarbonyl)-4-ethylpyrrolidin-3-yl]-9-ethyl-8-(2-methylpyrimidin-5-yl)-9H-purin-6-amine] | 8.46 | >10
CCn1c(-c2cnc(C)nc2)nc2c(NC3CN(C(=O)C4CC4)CC3F)ncnc21 (single isomer, unassigned) [Compound 3-21, N-[(3R,4R or 3S,4S)-1-(cyclopropylcarbonyl)-4-fluoropyrrolidin-3-yl]-9-ethyl-8-(2-methylpyrimidin-5-yl)-9H-purin-6-amine] | 8.47 | >10
CCn1c(-c2cnc(C)nc2)nc2c(NC3CCCC(NC(=O)c4cocn4)C3)ncnc21 (single isomer, unassigned) [Compound 5-8, N-(1S,3S or 1R,3R)-(3-{[9-ethyl-8-(2-methylpyrimidin-5-yl)-9H-purin-6-yl]amino}cyclohexyl)-1,3-oxazole-4-carboxamide] | 7.92 | >10
CCn1c(C(F)F)nc2c(N[C@H]3CCN(C(=O)C4CC45CCCC5)C3)ncnc21 (single isomer, unassigned) [Compound 7-20, (S or R)-8-(difluoromethyl)-9-ethyl-N-[(3S)-1-(spiro[2.4]hept-1-ylcarbonyl)pyrrolidin-3-yl]-9H-purin-6-amine] | 6.15 | >10
CCn1c(C(F)F)nc2c(N[C@H]3CCN(C(=O)C4CC45CCCC5)C3)ncnc21 (single isomer, unassigned) [Compound 7-21, (S or R)-8-(difluoromethyl)-9-ethyl-N-[(3S)-1-(spiro[2.4]hept-1-ylcarbonyl)pyrrolidin-3-yl]-9H-purin-6-amine] | 8.62 | >10
CCn1c(-c2cnc(C)nc2)nc2c(NC3CCC(=O)N(CC4CC4)C3)ncnc21 (single isomer, unassigned) [Compound 14-6, 5(S or R)-1-(cyclopropylmethyl)-5-{[9-ethyl-8-(2-methylpyrimidin-5-yl)-9H-purin-6-yl]amino}piperidin-2-one] | 8.37 | >10
CCn1c(-c2cnc(C)nc2)nc2c(NC3CCCC(=O)N(CC4CC4)C3)ncnc21 (single isomer, unassigned) [Compound 14-7, (R or S)-1-(cyclopropylmethyl)-6-{[9-ethyl-8-(2-methylpyrimidin-5-yl)-9H-purin-6-yl]amino}azepan-2-one] | 7.89 | >10
CCn1c(-c2cnc(C)nc2)nc2c(NC3CCN(C(=O)c4cnco4)C3)ncnc21 (stereo in doubt) [Compound 2-76, (R)-(3-((9-ethyl-8-(2-methylpyrimidin-5-yl)-9H-purin-6-yl)amino)pyrrolidin-1-yl)(oxazol-5-yl)methanone] | 8.51 | >10
CCn1c(-c2cnc(OC)c(C)c2)nc2c(N(C)[C@H]3CCN(C(=O)OC(C)(C)C)C3)ncnc21 [Compound 1-4, (S)-tert-butyl 3-((9-ethyl-8-(6-methoxy-5-methylpyridin-3-yl)-9H-purin-6-yl)(methyl)amino)pyrrolidine-1-carboxylate] | 8.77 | >10
CCn1c(-c2cnc(C(C)(C)C)s2)nc2c(N(C)[C@H]3CCN(C(=O)OC(C)(C)C)C3)ncnc21 [Compound 1-7, (S)-tert-butyl 3-((8-(2-(tert-butyl)thiazol-5-yl)-9-ethyl-9H-purin-6-yl)(methyl)amino)pyrrolidine-1-carboxylate] | 8.17 | >10

More lines, now with the values ahead:

pIC50 (PI3K-delta) | Selectivity versus PI3Kalpha (PI3K-alpha) | Structure (SMILES)
7.82 | >10 | CCn1ncc(-c2nc3c(N[C@@H]4CCN(C(=O)OC(C)(C)C)C4)ncnc3n2C)c1C [Compound 1-1, tert-butyl (3R)-3-{[8-(1-ethyl-5-methyl-1H-pyrazol-4-yl)-9-methyl-9H-purin-6-yl]amino}pyrrolidine-1-carboxylate]
8.74 | >10 | CCn1ncc(-c2nc3c(N[C@H]4CCN(C(=O)OC(C)(C)C)C4)ncnc3n2C)c1C [Compound 1-2, tert-butyl (3S)-3-{[8-(1-ethyl-5-methyl-1H-pyrazol-4-yl)-9-methyl-9H-purin-6-yl]amino}pyrrolidine-1-carboxylate]
7.01 | >10 | CCn1ncc(-c2nc3c(N(C)[C@H]4CCN(C(=O)OC(C)(C)C)C4)ncnc3n2C)c1C [Compound 1-3, (S)-tert-butyl 3-((8-(1-ethyl-5-methyl-1H-pyrazol-4-yl)-9-methyl-9H-purin-6-yl)(methyl)amino)pyrrolidine-1-carboxylate]
> 9.00 | >10 | CCn1c(-c2cnc(OC)c(C)c2)nc2c(N[C@H]3CCN(C(=O)OC(C)(C)C)C3)ncnc21 [Compound 1-5, (S)-tert-butyl 3-((9-ethyl-8-(6-methoxy-5-methylpyridin-3-yl)-9H-purin-6-yl)amino)pyrrolidine-1-carboxylate]
> 9.00 | 8 | CCn1c(-c2cnc(C(C)(C)C)s2)nc2c(N[C@H]3CCN(C(=O)OC(C)(C)C)C3)ncnc21 [Compound 1-6, (S)-tert-butyl 3-((8-(2-(tert-butyl)thiazol-5-yl)-9-ethyl-9H-purin-6-yl)amino)pyrrolidine-1-carboxylate]
8.77 | >10 | COc1ncc(-c2nc3c(N[C@H]4CCN(C(=O)OC(C)(C)C)C4)ncnc3n2C)cc1C [Compound 1-8, (S)-tert-butyl 3-((8-(6-methoxy-5-methylpyridin-3-yl)-9-methyl-9H-purin-6-yl)amino)pyrrolidine-1-carboxylate]
> 9.00 | >10 | Cn1c(-c2cnc(C(C)(C)C)s2)nc2c(N[C@H]3CCN(C(=O)OC(C)(C)C)C3)ncnc21 [Compound 1-9, (S)-tert-butyl 3-((8-(2-(tert-butyl)thiazol-5-yl)-9-methyl-9H-purin-6-yl)amino)pyrrolidine-1-carboxylate]
7.82 | >10 | CCn1ncc(-c2nc3c(NC4CN(C(=O)OC(C)(C)C)C4)ncnc3n2C)c1C [Compound 1-10, tert-butyl 3-((8-(1-ethyl-5-methyl-1H-pyrazol-4-yl)-9-methyl-9H-purin-6-yl)amino)azetidine-1-carboxylate]
6.60 | >10 | CCn1ncc(-c2nc3c(N[C@@H]4CCCN(C(=O)OC(C)(C)C)C4)ncnc3n2C)c1C [Compound 1-11, (R)-tert-butyl 3-((8-(1-ethyl-5-methyl-1H-pyrazol-4-yl)-9-methyl-9H-purin-6-yl)amino)piperidine-1-carboxylate]
7.72 | >10 | CCn1ncc(-c2nc3c(N[C@H]4CCCN(C(=O)OC(C)(C)C)C4)ncnc3n2C)c1C [Compound 1-12, (S)-tert-butyl 3-((8-(1-ethyl-5-methyl-1H-pyrazol-4-yl)-9-methyl-9H-purin-6-yl)amino)piperidine-1-carboxylate]
> 9.00 | >10 | CCn1c(-c2cnc(C)nc2)nc2c(N[C@H]3CCN(C(=O)OC(C)(C)C)C3)ncnc21 [Compound 1-13, (S)-tert-butyl 3-((9-ethyl-8-(2-methylpyrimidin-5-yl)-9H-purin-6-yl)amino)pyrrolidine-1-carboxylate]
8.96 | >10 | CCn1ncc(-c2nc3c(N[C@H]4CCN(C(=O)OC(C)(C)C)C4)ncnc3n2CC)c1C [Compound 1-14, tert-butyl (3S)-3-{[9-ethyl-8-(1-ethyl-5-methyl-1H-pyrazol-4-yl)-9H-purin-6-yl]amino}pyrrolidine-1-carboxylate]
